Results: publication PMC8286840, “Identifying SARS-CoV-2 antiviral compounds by screening for small molecule inhibitors of Nsp3 papain-like protease” (Biochemical Journal, 2021)
Structures can show the parent of a compound that is named as a salt. Where two headings read alike, the source gives them in different places. Where a SMILES comes first, the peptide text is derived from it. [ ]: non-standard residue; d: D form. The star is where a group is joined. Dolaproine = CO[C@@H]([C@@H]1CCCN1)[C@@H](C)C(=O)O; Hexanoyl(6-maleimido) = O=C1C=CC(=O)N1CCCCCC(=O)*; Dil = CC[C@H](C)[C@H](NC)[C@@H](CC(=O)O)OC; Doe = c1ccc(C[C@H](N*)c2nccs2)cc1; X2 = C[C@@H](N*)[C@@H](O)c1ccccc1; NMeV = CN[C@H](C(=O)O)C(C)C

What was measured:
[1] = biological target: T1, SARS-CoV-2 PLpro (nsp3 1564–1878) (Severe acute respiratory syndrome coronavirus 2, UniProt P0DTD1); assay: biochemical; design: FRET-quenched peptide (Pro3) cleavage by PLpro, 10 min pre-incubation, slope over 20 min, normalised to no-compound control; conditions: low concentration screen, read-out: % of control remaining
[2] = biological target: T1, SARS-CoV-2 PLpro (nsp3 1564–1878); assay: biochemical; design: FRET-quenched peptide (Pro3) cleavage by PLpro, 10 min pre-incubation, slope over 20 min, normalised to no-compound control; conditions: high concentration screen, read-out: % of control remaining

CNCCCC12CCC(c3ccccc31)c1ccccc12 [Maprotiline.HCl]
remaining activity at 1.25 µM ([1]; Well no.=1787): 95.1%
remaining activity at 3.75 µM ([2]; Well no.=1787): 96.8%

Cc1nnc(C(C)C)n1[C@@H]1C[C@H]2CC[C@@H](C1)N2CC[C@H](NC(=O)C1CCC(F)(F)CC1)c1ccccc1 [Maraviroc]
remaining activity at 1.25 µM ([1]; Well no.=4678): 103%
remaining activity at 1.25 µM ([1]; Well no.=8691): 101%
remaining activity at 3.75 µM ([2]; Well no.=4678): 100%
remaining activity at 3.75 µM ([2]; Well no.=8691): 102%

O=C(/C=C/c1ccc(O)c(O)c1)c1ccc(O[C@@H]2O[C@H](CO)[C@@H](O)[C@H](O)[C@H]2O)c(O)c1O [Marein]
remaining activity at 1.25 µM ([1]; Well no.=3731): 91.7%
remaining activity at 3.75 µM ([2]; Well no.=3731): 95.9%

O=C1/C(=C/c2ccc(O)c(O)c2)Oc2c1ccc(O[C@@H]1O[C@H](CO)[C@@H](O)[C@H](O)[C@H]1O)c2O [Maritimein]
remaining activity at 1.25 µM ([1]; Well no.=3339): 91.1%
remaining activity at 3.75 µM ([2]; Well no.=3339): 97.6%

O=C(c1ccccc1O)c1[nH]c(Cl)c(Cl)c1-n1c(C(=O)c2ccccc2O)cc(Cl)c1Cl [Maritoclax]
remaining activity at 1.25 µM ([1]; Well no.=6588): 101%
remaining activity at 3.75 µM ([2]; Well no.=6588): 99.2%

O=C1CCC[C@@H]2[C@H]3CCCN4CCC[C@@H](CN12)[C@@H]34 [Matrine]
remaining activity at 1.25 µM ([1]; Well no.=3661): 101%
remaining activity at 1.25 µM ([1]; Well no.=8341): 100%
remaining activity at 3.75 µM ([2]; Well no.=3661): 103%
remaining activity at 3.75 µM ([2]; Well no.=8341): 94.7%

NCCCCN(Cc1nc2ccccc2[nH]1)[C@H]1CCCc2cccnc21 [Mavorixafor (trihydrochloride)]
remaining activity at 1.25 µM ([1]; Well no.=8167): 109%
remaining activity at 3.75 µM ([2]; Well no.=8167): 103%

CC[C@H](C)[C@@H]([C@@H](CC(=O)N1CCC[C@H]1[C@H](OC)[C@@H](C)C(=O)N[C@@H](Cc1ccccc1)c1nccs1)OC)N(C)C(=O)[C@@H](NC(=O)[C@H](C(C)C)N(C)C(=O)CCCCCN1C(=O)C=CC1=O)C(C)C [Mc-MMAD] ({Hexanoyl(6-maleimido)}-[NMeV]V[Dil][Dolaproine]-Doe)
remaining activity at 1.25 µM ([1]; Well no.=8610): 95.3%
remaining activity at 3.75 µM ([2]; Well no.=8610): 91.2%

CC[C@H](C)[C@@H]([C@@H](CC(=O)N1CCC[C@H]1[C@H](OC)[C@@H](C)C(=O)N[C@H](C)[C@@H](O)c1ccccc1)OC)N(C)C(=O)[C@@H](NC(=O)[C@H](C(C)C)N(C)C(=O)CCCCCN1C(=O)C=CC1=O)C(C)C [Mc-MMAE] ({Hexanoyl(6-maleimido)}-[NMeV]V[Dil][Dolaproine]-X2)
remaining activity at 1.25 µM ([1]; Well no.=8552): 93.6%
remaining activity at 3.75 µM ([2]; Well no.=8552): 98.9%

CC[C@H](C)[C@@H]([C@@H](CC(=O)N1CCC[C@H]1[C@H](OC)[C@@H](C)C(=O)N[C@@H](Cc1ccccc1)C(=O)O)OC)N(C)C(=O)[C@@H](NC(=O)[C@H](C(C)C)N(C)C(=O)CCCCCN1C(=O)C=CC1=O)C(C)C [McMMAF] ({Hexanoyl(6-maleimido)}-[NMeV]V[Dil][Dolaproine]F-OH)
remaining activity at 1.25 µM ([1]; Well no.=7742): 97.3%
remaining activity at 3.75 µM ([2]; Well no.=7742): 101%

C[N+](C)(C)CC#CCOC(=O)Nc1cccc(Cl)c1 [McN-A-343]
remaining activity at 1.25 µM ([1]; Well no.=184): 102%
remaining activity at 3.75 µM ([2]; Well no.=184): 96.2%

O=C(O)COc1ccccc1C(Nc1ccccn1)c1cc(Cl)c2cccnc2c1O (stereo not shown) [Mcl1-IN-1]
remaining activity at 1.25 µM ([1]; Well no.=6880): 99.8%
remaining activity at 3.75 µM ([2]; Well no.=6880): 96.8%

CN(N=O)c1ccc(O)c(O)c1 [Me-3,4-dephostatin]
remaining activity at 1.25 µM ([1]; Well no.=1131): 95.2%
remaining activity at 3.75 µM ([2]; Well no.=1131): 91.3%

CCCCCCCC/C=C\C/C=C\C/C=C\CCCC(=O)NCCO [Mead ethanolamide]
remaining activity at 1.25 µM ([1]; Well no.=4324): 99.8%
remaining activity at 3.75 µM ([2]; Well no.=4324): 95.4%

COC(=O)Nc1nc2cc(C(=O)c3ccccc3)ccc2[nH]1 [Mebendazol]
remaining activity at 1.25 µM ([1]; Well no.=1947): 99%
remaining activity at 3.75 µM ([2]; Well no.=1947): 100%

CCN(CCCCOC(=O)c1ccc(OC)c(OC)c1)C(C)Cc1ccc(OC)cc1 (stereo not shown) [Mebeverine (hydrochloride)]
remaining activity at 1.25 µM ([1]; Well no.=7048): 108%
remaining activity at 3.75 µM ([2]; Well no.=7048): 101%

CN1CCc2c(c3ccccc3n2Cc2ccccc2)C1 [Mebhydrolin (napadisylate)]
remaining activity at 1.25 µM ([1]; Well no.=7437): 99.4%
remaining activity at 3.75 µM ([2]; Well no.=7437): 94.1%

CNC1(C)C2CCC(C2)C1(C)C (stereo not shown) [Mecamylamine hydrochloride]
remaining activity at 1.25 µM ([1]; Well no.=987): 98.1%
remaining activity at 3.75 µM ([2]; Well no.=987): 99.8%

CNC1(C)C2CCC(C2)C1(C)C (stereo not shown) [Mecamylamine]
remaining activity at 1.25 µM ([1]; Well no.=1556): 103%
remaining activity at 3.75 µM ([2]; Well no.=1556): 102%

CCOC(=O)c1c(C)n(C)c2ccc(O)cc12 [Mecarbinate]
remaining activity at 1.25 µM ([1]; Well no.=4756): 98.2%
remaining activity at 3.75 µM ([2]; Well no.=4756): 95.8%

Cc1ccc(Cl)c(Nc2ccccc2C(=O)O)c1Cl [Meclofenamic acid sodium salt]
remaining activity at 1.25 µM ([1]; Well no.=5492): 104%
remaining activity at 3.75 µM ([2]; Well no.=5492): 106%

Cc1ccc(Cl)c(Nc2ccccc2C(=O)O)c1Cl [Meclofenamic acid sodium]
remaining activity at 1.25 µM ([1]; Well no.=784): 103%
remaining activity at 3.75 µM ([2]; Well no.=784): 103%

Cc1cccc(C(C)c2c[nH]cn2)c1C (stereo not shown) [Medetomidine (hydrochloride)]
remaining activity at 1.25 µM ([1]; Well no.=7479): 103%
remaining activity at 3.75 µM ([2]; Well no.=7479): 99.7%

Cc1cccc(C(C)c2c[nH]cn2)c1C (stereo not shown) [Medetomidine HCl]
remaining activity at 1.25 µM ([1]; Well no.=4927): 99.2%
remaining activity at 3.75 µM ([2]; Well no.=4927): 100%

CC(=O)O[C@]1(C(C)=O)CC[C@H]2[C@@H]3C[C@H](C)C4=CC(=O)CC[C@]4(C)[C@H]3CC[C@@]21C [Medroxyprogesterone 17-Acetate]
remaining activity at 1.25 µM ([1]; Well no.=1949): 103%
remaining activity at 3.75 µM ([2]; Well no.=1949): 104%

Cc1cccc(Nc2ccccc2C(=O)O)c1C [Mefenamic acid]
remaining activity at 1.25 µM ([1]; Well no.=1951): 97.7%
remaining activity at 3.75 µM ([2]; Well no.=1951): 99.7%

CC(=O)O[C@]1(C(C)=O)CC[C@H]2[C@@H]3C=C(C)C4=CC(=O)CC[C@]4(C)[C@H]3CC[C@@]21C [Megestrol Acetate]
remaining activity at 1.25 µM ([1]; Well no.=2236): 95%
remaining activity at 3.75 µM ([2]; Well no.=2236): 93.2%

CNC[C@H](O)[C@@H](O)[C@H](O)[C@H](O)CO [Meglumine]
remaining activity at 1.25 µM ([1]; Well no.=1565): 104%
remaining activity at 3.75 µM ([2]; Well no.=1565): 104%

CN1C(=O)/C(=C2/C(=O)Nc3ccccc32)c2ccccc21 [Meisoindigo]
remaining activity at 1.25 µM ([1]; Well no.=6772): 94.5%
remaining activity at 3.75 µM ([2]; Well no.=6772): 95%

COc1ccc2[nH]cc(CCNC(C)=O)c2c1 [Melatonin]
remaining activity at 1.25 µM ([1]; Well no.=1072): 98.6%
remaining activity at 1.25 µM ([1]; Well no.=1665): 106%
remaining activity at 1.25 µM ([1]; Well no.=3320): 99.3%
remaining activity at 1.25 µM ([1]; Well no.=3990): 101%
remaining activity at 1.25 µM ([1]; Well no.=6347): 97.8%
remaining activity at 1.25 µM ([1]; Well no.=6565): 103%
remaining activity at 3.75 µM ([2]; Well no.=1072): 101%
remaining activity at 3.75 µM ([2]; Well no.=1665): 107%
remaining activity at 3.75 µM ([2]; Well no.=3320): 98.5%
remaining activity at 3.75 µM ([2]; Well no.=6347): 102%
remaining activity at 3.75 µM ([2]; Well no.=6565): 96.1%
